# Measured values as given in patent publication US20230093099A1, “COMPOUNDS AND METHODS OF TREATING CANCERS” (CULLGEN (SHANGHAI), INC., priority 2019, published 2023).
# Tested on: RS4;11 cells
# Test: Cell viability assay (CellTiter-Glo) in RS4;11 cells
# Type: cell-based
# Details: Homo sapiens, 72 h; RS4;11 ALL cells treated for three days; read-out: cell viability inhibition IC50
# How it was run: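 RS4;11 cells seeded at 5000 per well, exposed for 3 days to 8- or 12-point 3-fold serial dilutions. Viability read by CellTiter-Glo luminescence; IC50 fitted by nonlinear least-squares regression.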
row,IC50 [nM],SMILES
1,< 100,"Cc1cnc(Nc2ccc(N3CCN(CC(=O)NCCCCCCNc4cccc5c4C(=O)N(C4CCC(=O)NC4=O)C5=O)CC3)cc2)nc1Nc1cccc(S(=O)(=O)NC(C)(C)C)c1 (centres unmarked) [JA-094, 2-(4-(4-((4-((3-(N-(tert-butyl)sulfamoyl)phenyl)amino)-5-methylpyrimidin-2-yl)amino)phenyl)piperazin-1-yl)-N-(6-((2-(2,6-dioxopiperidin-3-yl)-1,3-dioxoisoindolin-4-yl)amino)hexyl)acetamide]"

# Same assay, conditions: Homo sapiens, 72 h; RS4;11 cells; cell viability, 3 days, CellTiter-Glo; read-out: IC50
row,IC50 [nM],SMILES
1,150,"Cc1cnc(Nc2ccc(N3CCN(CC(=O)NCCCCCCNc4ccc5c(c4)C(=O)N(C4CCC(=O)NC4=O)C5=O)CC3)cc2)nc1Nc1cccc(S(=O)(=O)NC(C)(C)C)c1 (centres unmarked) [JA-245, 2-(4-(4-((4-((3-(N-(tert-butyl)sulfamoyl)phenyl)amino)-5-methylpyrimidin-2-yl)amino)phenyl)piperazin-1-yl)-N-(6-((2-(2,6-dioxopiperidin-3-yl)-1,3-dioxoisoindolin-5-yl)amino)hexyl)acetamide]"
2,> 10000,"O=C(CN1CCC(n2cc(-c3cnc4cccc(-c5cc(F)c(CN6CCOCC6)c(F)c5)c4n3)cn2)CC1)NCCOCCOCCOCCNc1ccc2c(c1)C(=O)N(C1CCC(=O)NC1=O)C2=O (centres unmarked) [JA-171, 2-(4-(4-(8-(3,5-Difluoro-4-(morpholinomethyl)phenyl)quinoxalin-2-yl)-1H-pyrazol-1-yl)piperidin-1-yl)-N-(2-(2-(2-(2-((2-(2,6-dioxopiperidin-3-yl)-1,3-dioxoisoindolin-5-yl)amino)ethoxy)ethoxy)ethoxy)ethyl)acetamide]"
3,> 10000,"Cc1ncsc1-c1ccc(CNC(=O)[C@@H]2C[C@@H](O)CN2C(=O)[C@@H](NC(=O)CCOCCOCCC(=O)N2CCC(n3cc(-c4cnc5cccc(-c6cc(F)c(CN7CCOCC7)c(F)c6)c5n4)cn3)CC2)C(C)(C)C)cc1 [JA-056, (2S,4R)-1-[(2S)-2-[3-[2-[3-[4-[4-[8-[3,5-Difluoro-4-(morpholinomethyl)phenyl]quinoxalin-2-yl]pyrazol-1-yl]-1-piperidyl]-3-oxo-propoxy]ethoxy]propanoylamino]-3,3-dimethyl-butanoyl]-4-hydroxy-N-[[4-(4-methylthiazol-5-yl)phenyl]methyl]pyrrolidine-2-carboxamide]"
4,298,"CS(=O)(=O)c1ccc(-c2cccc3nc(Nc4ccc(N5CCN(CCCCCCCc6ccc7c(c6)C(=O)N(C6CCC(=O)NC6=O)C7=O)CC5)cc4)nn23)cc1 (centres unmarked) [JA-253, 2-(2,6-Dioxopiperidin-3-yl)-5-(7-(4-(4-((5-(4-(methylsulfonyl)phenyl)-[1,2,4]triazolo[1,5-a]pyridin-2-yl)amino)phenyl)piperazin-1-yl)heptyl)isoindoline-1,3-dione]"
5,> 10000,"Cc1ncsc1-c1ccc(CNC(=O)[C@@H]2C[C@@H](O)CN2C(=O)[C@@H](NC(=O)CCC(=O)N2CCN(c3ccc(Nc4nc5cccc(-c6ccc(S(C)(=O)=O)cc6)n5n4)cc3)CC2)C(C)(C)C)cc1 [JA-069, (2S,4R)-1-((S)-3,3-Dimethyl-2-(4-(4-(4-((5-(4-(methylsulfonyl)phenyl)-[1,2,4]triazolo[1,5-a]pyridin-2-yl)amino)phenyl)piperazin-1-yl)-4-oxobutanamido)butanoyl)-4-hydroxy-N-(4-(4-methylthiazol-5-yl)benzyl)pyrrolidine-2-carboxamide]"
6,> 10000,"Cc1ncsc1-c1ccc(CNC(=O)[C@@H]2C[C@@H](O)CN2C(=O)[C@@H](NC(=O)CCCCCCNC(=O)CN2CCC(n3cc(-c4cnc5cccc(-c6cc(F)c(CN7CCOCC7)c(F)c6)c5n4)cn3)CC2)C(C)(C)C)cc1 [JA-165, (2S,4R)-1-((S)-2-(7-(2-(4-(4-(8-(3,5-Difluoro-4-(morpholinomethyl)phenyl)quinoxalin-2-yl)-1H-pyrazol-1-yl)piperidin-1-yl)acetamido)heptanamido)-3,3-dimethylbutanoyl)-4-hydroxy-N-(4-(4-methylthiazol-5-yl)benzyl)pyrrolidine-2-carboxamide]"
7,> 10000,"CS(=O)(=O)c1ccc(-c2cccc3nc(Nc4ccc(N5CCN(CC(=O)NCCOCCOCCOCCNc6cccc7c6C(=O)N(C6CCC(=O)NC6=O)C7=O)CC5)cc4)nn23)cc1 (centres unmarked) [JA-127, N-(2-(2-(2-(2-((2-(2,6-Dioxopiperidin-3-yl)-1,3-dioxoisoindolin-4-yl)amino)ethoxy)ethoxy)ethoxy)ethyl)-2-(4-(4-((5-(4-(methylsulfonyl)phenyl)-[1,2,4]triazolo[1,5-a]pyridin-2-yl)amino)phenyl)piperazin-1-yl)acetamide]"
8,3040,"CS(=O)(=O)c1ccc(-c2cccc3nc(Nc4ccc(N5CCN(C(=O)CCCCNc6cccc7c6C(=O)N(C6CCC(=O)NC6=O)C7=O)CC5)cc4)nn23)cc1 (centres unmarked) [JA-011, 2-(2,6-Dioxo-piperidin-3-yl)-4-[5-(4-{4-[5-(4-methanesulfonyl-phenyl)-[1,2,4]triazolo[1,5-a]pyridin-2-ylamino]-phenyl}-piperazin-1-yl)-5-oxo-pentylamino]-isoindole-1,3-dione]"
9,> 500,"Cn1c(=O)n(C2CCC(=O)NC2=O)c2cccc(NCCCCC(=O)N3CCN(c4ccc(Nc5nc6cccc(-c7ccc(S(C)(=O)=O)cc7)n6n5)cc4)CC3)c21 (centres unmarked) [JA-290, 3-(3-Methyl-4-((5-(4-(4-((5-(4-(methylsulfonyl)phenyl)-[1,2,4]triazolo[1,5-a]pyridin-2-yl)amino)phenyl)piperazin-1-yl)-5-oxopentyl)amino)-2-oxo-2,3-dihydro-1H-benzo[d]imidazol-1-yl)piperidine-2,6-dione]"
10,> 10000,"Cc1ncsc1-c1ccc(CNC(=O)[C@@H]2C[C@@H](O)CN2C(=O)[C@@H](NC(=O)CCCCC(=O)N2CCN(c3ccc(Nc4nc5cccc(-c6ccc(S(C)(=O)=O)cc6)n5n4)cc3)CC2)C(C)(C)C)cc1 [JA-074, (2S,4R)-1-((S)-3,3-Dimethyl-2-(6-(4-(4-((5-(4-(methylsulfonyl)phenyl)-[1,2,4]triazolo[1,5-a]pyridin-2-yl)amino)phenyl)piperazin-1-yl)-6-oxohexanamido)butanoyl)-4-hydroxy-N-(4-(4-methylthiazol-5-yl)benzyl)pyrrolidine-2-carboxamide]"
11,3440,"O=C1CCC(N2C(=O)c3cccc(NCCOCCOCCOCCOCCC(=O)N4CCC(n5cc(-c6cnc7cccc(-c8cc(F)c(CN9CCOCC9)c(F)c8)c7n6)cn5)CC4)c3C2=O)C(=O)N1 (centres unmarked) [JA-047, 4-[2-[2-[2-[2-[3-[4-[4-[8-[3,5-Difluoro-4-(morpholinomethyl)phenyl]quinoxalin-2-yl]pyrazol-1-yl]-1-piperidyl]-3-oxo-propoxy]ethoxy]ethoxy]ethoxy]ethylamino]-2-(2,6-dioxo-3-piperidyl)isoindoline-1,3-dione]"
12,> 10000,"Cc1ncsc1-c1ccc(CNC(=O)[C@@H]2C[C@@H](O)CN2C(=O)[C@@H](NC(=O)CCCCCCCCC(=O)N2CCC(n3cc(-c4cnc5cccc(-c6cc(F)c(CN7CCOCC7)c(F)c6)c5n4)cn3)CC2)C(C)(C)C)cc1 [JA-042, (2S,4R)-1-[(2S)-2-[[10-[4-[4-[8-[3,5-Difluoro-4-(morpholinomethyl)phenyl]quinoxalin-2-yl]pyrazol-1-yl]-1-piperidyl]-10-oxo-decanoyl]amino]-3,3-dimethyl-butanoyl]-4-hydroxy-N-[[4-(4-methylthiazol-5-yl)phenyl]methyl]pyrrolidine-2-carboxamide]"
13,2030,"O=C(CN1CCC(n2cc(-c3cnc4cccc(-c5cc(F)c(CN6CCOCC6)c(F)c5)c4n3)cn2)CC1)NCCOCCNc1ccc2c(c1)C(=O)N(C1CCC(=O)NC1=O)C2=O (centres unmarked) [JA-169, 2-(4-(4-(8-(3,5-Difluoro-4-(morpholinomethyl)phenyl)quinoxalin-2-yl)-1H-pyrazol-1-yl)piperidin-1-yl)-N-(2-(2-((2-(2,6-dioxopiperidin-3-yl)-1,3-dioxoisoindolin-5-yl)amino)ethoxy)ethyl)acetamide]"
14,143,"Cc1cnc(Nc2ccc(N3CCN(CC(=O)NCCOCCNc4cccc5c4C(=O)N(C4CCC(=O)NC4=O)C5=O)CC3)cc2)nc1Nc1cccc(S(=O)(=O)NC(C)(C)C)c1 (centres unmarked) [JA-087, 2-(4-(4-((4-((3-(N-(tert-Butyl)sulfamoyl)phenyl)amino)-5-methylpyrimidin-2-yl)amino)phenyl)piperazin-1-yl)-N-(2-(2-((2-(2,6-dioxopiperidin-3-yl)-1,3-dioxoisoindolin-4-yl)amino)ethoxy)ethyl)acetamide]"
15,> 10000,"O=C(CN1CCC(n2cc(-c3cnc4cccc(-c5cc(F)c(CN6CCOCC6)c(F)c5)c4n3)cn2)CC1)NCCOCCOCCNc1ccc2c(c1)C(=O)N(C1CCC(=O)NC1=O)C2=O (centres unmarked) [JA-170, 2-(4-(4-(8-(3,5-Difluoro-4-(morpholinomethyl)phenyl)quinoxalin-2-yl)-1H-pyrazol-1-yl)piperidin-1-yl)-N-(2-(2-(2-((2-(2,6-dioxopiperidin-3-yl)-1,3-dioxoisoindolin-5-yl)amino)ethoxy)ethoxy)ethyl)acetamide]"
16,74.4,"Cc1cnc(Nc2ccc(N3CCN(CC(=O)NCCCCCCNc4cccc5c4C(=O)N(C4CCC(=O)NC4=O)C5=O)CC3)cc2)nc1Nc1cccc(S(=O)(=O)NC(C)(C)C)c1 (centres unmarked) [JA-094, 2-(4-(4-((4-((3-(N-(tert-butyl)sulfamoyl)phenyl)amino)-5-methylpyrimidin-2-yl)amino)phenyl)piperazin-1-yl)-N-(6-((2-(2,6-dioxopiperidin-3-yl)-1,3-dioxoisoindolin-4-yl)amino)hexyl)acetamide]"
17,2450,"O=C(CN1CCC(n2cc(-c3cnc4cccc(-c5cc(F)c(CN6CCOCC6)c(F)c5)c4n3)cn2)CC1)NCCNc1ccc2c(c1)C(=O)N(C1CCC(=O)NC1=O)C2=O (centres unmarked) [JA-174, 2-(4-(4-(8-(3,5-Difluoro-4-(morpholinomethyl)phenyl)quinoxalin-2-yl)-1H-pyrazol-1-yl)piperidin-1-yl)-N-(2-((2-(2,6-dioxopiperidin-3-yl)-1,3-dioxoisoindolin-5-yl)amino)ethyl)acetamide]"
18,> 10000,"CS(=O)(=O)c1ccc(-c2cccc3nc(Nc4ccc(N5CCN(CC(=O)NCCCNc6ccc7c(c6)C(=O)N(C6CCC(=O)NC6=O)C7=O)CC5)cc4)nn23)cc1 (centres unmarked) [JA-210, N-(3-((2-(2,6-Dioxopiperidin-3-yl)-1,3-dioxoisoindolin-5-yl)amino)propyl)-2-(4-(4-((5-(4-(methylsulfonyl)phenyl)-[1,2,4]triazolo[1,5-a]pyridin-2-yl)amino)phenyl)piperazin-1-yl)acetamide]"
19,> 10000,"Cc1cnc(Nc2ccc(N3CCN(C(=O)CCOCCOCCNc4cccc5c4C(=O)N(C4CCC(=O)NC4=O)C5=O)CC3)cc2)nc1Nc1cccc(S(=O)(=O)NC(C)(C)C)c1 (centres unmarked) [JA-018, N-(tert-Butyl)-3-((2-((4-(4-(3-(2-(2-((2-(2,6-dioxopiperidin-3-yl)-1,3-dioxoisoindolin-4-yl)amino)ethoxy)ethoxy)propanoyl)piperazin-1-yl)phenyl)amino)-5-methylpyrimidin-4-yl)amino)benzenesulfonamide]"
